Here are results for 15 compounds from ChEMBL document CHEMBL1137972, “Synthesis and anti-HCMV activity of 1-acyl-beta-lactams and 1-acylazetidines derived from phenylalanine” (Bioorg Med Chem Lett, 2004).

Assay [1] deals with HEL. The experiment in a line: Effective concentration against human cytomegalovirus AD-169 strain in HEL cell cultures. The assay is classed as functional, cell-based.
Assay [2] concerns HEL. Kind of assay: Effective concentration against human cytomegalovirus Davies strain in HEL cell cultures. The class given is functional, cell-based.
The subject of assay [3] is HEL. The experiment in a line: Cytotoxic concentration required to reduce HEL cell growth by 50%. The assay is classed as functional. To be noted: Homo sapiens.

By EC50 is commonly meant the concentration needed to bring the measured effect to its halfway point. A higher EC50 goes with a less potent agent. What is called CC50 is the concentration giving 50% cytotoxicity. Consider `C[C@@H](NC(=O)N1C(=O)C[C@@]1(Cc1ccccc1)C(=O)OC(C)(C)C)c1ccccc1`, for which the values for the EC50 with HEL [1] and in the assay on HEL [2] were 32 µM and 33 µM, respectively. Moreover, the CC50 in the assay on HEL [3] was 70 µM.

On to `C[C@@H](NC(=O)N1C(=O)C[C@@]1(Cc1ccccc1)C(=O)O)c1ccccc1`, for which the EC50 in the assay on HEL [1] and with HEL [2] was above 200 µM each time. For the same compound, the CC50 in the assay on HEL [3] was above 200 µM.

`O=C1C[C@H](Cc2ccccc2)N1C(=O)NCc1ccccc1` came in with an EC50 in the assay on HEL [1] of 53 µM. Besides, in the assay with HEL [3], the CC50 is above 750 µM.

With `Nc1ccn(C[C@@H](CO)OCP(=O)(O)O)c(=O)n1` [CIDOFOVIR], the values for the EC50 with HEL [1] and in the assay on HEL [2] were 0.16 µM and 0.5 µM, respectively. Moreover, the CC50 with HEL [3] is above 150 µM.

As to `CC(C)(C)OC(=O)C1(Cc2ccccc2)CC(=O)N1C(=O)OCc1ccccc1` (centres undefined), the EC50 in the assay with HEL [1] worked out at 11 µM; with HEL [2], 13 µM. Further, it took 36 µM to reach half-maximal cytotoxicity with HEL [3] (CC50).

As to `CC(C)(C)OC(=O)C1(Cc2ccccc2)CCN1C(=O)OCc1ccccc1` (centres undefined), the EC50 came out at 0.74 µM in the assay on HEL [1] and 0.62 µM in the assay on HEL [2]. In addition, half-maximal cytotoxicity in the assay on HEL [3] (CC50) was put at 34 µM.

For the compound `C[C@@H](NC(=O)N1C(=O)C[C@]1(Cc1ccccc1)C(=O)O)c1ccccc1`, the EC50 with HEL [1] and in the assay on HEL [2] was above 50 µM throughout. The compound also returned a CC50 with HEL [3] above 200 µM.

On to `CC(C)(C)OC(=O)C1(Cc2ccccc2)CC(=O)N1C(=O)Nc1ccccc1` (centres undefined), for which the EC50 in the assay with HEL [1] and in the assay with HEL [2] was 50 µM each time. The compound further yielded a CC50 with HEL [3] of 118 µM.

Take `C[C@H](NC(=O)N1C(=O)C[C@@]1(Cc1ccccc1)C(=O)OC(C)(C)C)c1ccccc1`: the EC50 with HEL [1] and in the assay on HEL [2] was 35 µM in each case. Besides, in the assay with HEL [3], the 50% cytotoxic concentration (CC50) is 184 µM.

`CC(C)(C)OC(=O)N1C(=O)CC1(Cc1ccccc1)C(=O)OC(C)(C)C` (centres undefined): the EC50 with HEL [1] and in the assay with HEL [2] was above 200 µM throughout. In addition, the CC50 with HEL [3] is above 200 µM.

Take `Nc1nc2c(ncn2COC(CO)CO)c(=O)[nH]1` [GANCICLOVIR]: the EC50 in the assay on HEL [1] stood at 0.9 µM; in the assay on HEL [2], 0.8 µM. The CC50 with HEL [3] was above 150 µM.

For `C[C@H](NC(=O)N1C(=O)C[C@]1(Cc1ccccc1)C(=O)O)c1ccccc1`, the EC50 with HEL [1] and with HEL [2] was above 200 µM each time. The compound also displayed a CC50 with HEL [3] above 200 µM.

`C[C@@H](NC(=O)N1C(=O)C[C@]1(Cc1ccccc1)C(=O)OC(C)(C)C)c1ccccc1`: the EC50 in the assay with HEL [1] amounted to 100 µM; with HEL [2], 107 µM. In the assay with HEL [3], the CC50 was above 200 µM.

Take `C[C@H](NC(=O)N1C(=O)C[C@]1(Cc1ccccc1)C(=O)OC(C)(C)C)c1ccccc1`: the EC50 with HEL [1] turned out to be 32 µM; in the assay on HEL [2], 33 µM. In the assay on HEL [3], this compound gave a CC50 of 164 µM.

Regarding `C[C@H](NC(=O)N1C(=O)C[C@@]1(Cc1ccccc1)C(=O)O)c1ccccc1`, the concentration for a half-maximal effect (EC50) in the assay with HEL [1] and in the assay on HEL [2] was above 50 µM throughout. The same compound gave a CC50 with HEL [3] of 187 µM.
